Results from EP1832576A1, “4-Biarylyl-1-phenolyzetidin-2-ones” (Microbia Inc., priority 2003, dated 2005).

Test system: cholesterol absorption from the intestine
Assay: In Vivo Assay of Hypolipidemic Agents using the Rat Cholesterol Absorption Model
Set-up: species or system Female Sprague-Dawley rats
Conditions: po, Table 1, perorally, 1 mg/kg, 3H levels in serum three hours after 3H-cholesterol, versus vehicle only control
Method: In Vivo Assay of Hypolipidemic Agents using the Rat Cholesterol Absorption Model. This model is based on models described by Burnett et al (2002), Bioorg. Med. Chem. Lett. 2002 Feb 11;12(3):315-8 and J. Lipid Res. 1999 Oct;40(10):1747-57. Female Sprague-Dawley rats weighing 150-250g are separated into […] and fasted overnight. The animals (4-6/group) are dosed perorally with 300µL test compounds in olive oil or suitable vehicle. Thirty minutes later, 3-5 microCuries ^3H-cholesterol per rat are delivered perorally in 300 µL olive oil. After three hours, 200 µL serum is collected, vortexed with scintillation fluid, and measured for radioactivity in a scintillation counter. Percent inhibition is defined as 100*(1-Ctest/Cctrl), where Ctest and Cctrl refer to ^3H levels in serum for the test compound and for the vehicle only control, respectively. Percent inhibition values are reported for a fixed dose. The ED50 is the dose at which the half-maximal effect on serum ^3H levels is observed for a given test compound.
Representative compounds of the invention were tested in the Rat Cholesterol Absorption model above.

Structure (SMILES)	inhibition at 1 mg/kg [%]
CSc1cccc(-c2ccc([C@@H]3[C@@H](CC[C@H](O)c4ccc(F)cc4)C(=O)N3c3ccc(F)cc3)cc2)c1 [Example 82, (3R,4S)-1-(4-fluorophenyl)-3-[(3S)-3-(4-fluorophenyl)-3-hydroxypropyl]-4-[3'-(methylthio)biphenyl-4-yl]azetidin-2-one]	28
CN(C)c1cccc(-c2ccc([C@@H]3[C@@H](CC[C@H](O)c4ccc(F)cc4)C(=O)N3c3ccc(F)cc3)cc2)c1 [Example 83, (3R,4S)-4-[3'-(dimethylamino)biphenyl-4-yl]-1-(4-fluorophenyl)-3-[(3 S)-3-(4-fluorophenyl)-3-hydroxypropyl]azetidin-2-one]	38
C=Cc1ccc(-c2ccc([C@@H]3[C@@H](CC[C@H](O)c4ccc(F)cc4)C(=O)N3c3ccc(F)cc3)cc2)cc1 [Example 84, (3R,4S)-1-(4-fluorophenyl)-3-[(3S)-3-(4-fluorophenyl)-3-hydroxypropyl]-4-(4'-vinylbiphenyl-4-yl)azetidin-2-one]	51
COc1ccc(C=O)c(-c2ccc([C@@H]3[C@@H](CC[C@H](O)c4ccc(F)cc4)C(=O)N3c3ccc(F)cc3)cc2)c1 [Example 85, 4'-{(2S,3R)-1-(4-fluorophenyl)-3-[(3S)-3-(4-fluorophenyl)-3-hydroxypropyl]-4-oxoazetidin-2-yl}-5-methoxybiphenyl-2-carbaldehyde]	15
Nc1cccc(-c2ccc([C@@H]3[C@@H](CC[C@H](O)c4ccc(F)cc4)C(=O)N3c3ccc(F)cc3)cc2)c1 [Example 86, (3R,4S)-4-(3'-aminabiphenyl-4-yl)-1-(4-fluorophenyl)-3-[(3S)-3-(4-fluorophenyl)-3-hydroxypropyl]azetidin-2-one]	35
O=C1[C@H](CC[C@H](O)c2ccc(F)cc2)[C@@H](c2ccc(-c3ccc4c(c3)OCCO4)cc2)N1c1ccc(F)cc1 [Example 87, (3R,4S)-4-[4-(2,3-dihydro-1,4-benzodioxin-6-yl)phenyl]-1-(4-fluorophenyl)-3-[(3S)-3-(4-fluorophenyl)-3-hydroxypropyl]azetidin-2-one]	59
O=C(O)Cc1ccc(-c2ccc([C@@H]3[C@@H](CC[C@H](O)c4ccc(F)cc4)C(=O)N3c3ccc(F)cc3)cc2)cc1 [Example 88, (4'-{(2S,3R)-1-(4-fluorophenyl)-3-[(3S)-3-(4-fluorophenyl)-3-hydroxypropyl]-4-oxoazetidin-2-yl}biphenyl-4-yl)acetic acid]	30
COC(=O)c1ccc(-c2ccc([C@@H]3[C@@H](CC[C@H](O)c4ccc(F)cc4)C(=O)N3c3ccc(F)cc3)cc2)cc1 [Example 89, methyl 4'-{(2S,3R)-1-(4-fluorophenyl)-3-[(3S)-3-(4-fluorophenyl)-3-hydroxypropyl]-4-oxoazetidin-2-yl} biphenyl-4-carboxylate]	45
Cc1cc(C)cc(-c2ccc([C@@H]3[C@@H](CC[C@H](O)c4ccc(F)cc4)C(=O)N3c3ccc(F)cc3)cc2)c1 [Example 90, (3R,4S)-4-(3',5'-dimethylbiphenyl-4-yl)-1-(4-fluorophenyl)-3-[(3S)-3-(4-fluorophenyl)-3-hydroxypropyl]azetidin-2-one]	27
O=C1[C@H](CC[C@H](O)c2ccc(F)cc2)[C@@H](c2ccc(-c3ccc4ccccc4c3)cc2)N1c1ccc(F)cc1 [Example 91, (3R,4S)-1-(4-fluorophenyl)-3-[(3S)-3-(4-fluorophenyl)-3-hydroxypropyl]-4-[4-(2-naphthyl)phenyl]azetidin-2-one]	56
O=C1[C@H](CC[C@H](O)c2ccc(F)cc2)[C@@H](c2ccc(-c3cccc(C(F)(F)F)c3)cc2)N1c1ccc(F)cc1 [Example 92, (3R,4S)-1-(4-fluorophenyl)-3-[(3S)-3-(4-fluorophenyl)-3-hydroxypropyl]-4-[3'-(trifluoromethyl)biphenyl-4-yl]azetidin-2-one]	17
Cc1cccc(-c2ccc([C@@H]3[C@@H](CC[C@H](O)c4ccc(F)cc4)C(=O)N3c3ccc(F)cc3)cc2)c1 [Example 93, (3R,4S)-1-(4-fluorophenyl)-3-[(3S)-3-(4-fluorophenyl)-3-hydroxypropyl]-4-(3'-methylbiphenyl-4-yl)azetidin-2-one]	28
Cc1cc(-c2ccc([C@@H]3[C@@H](CC[C@H](O)c4ccc(F)cc4)C(=O)N3c3ccc(F)cc3)cc2)ccc1F [Example 94, (3R,4S)-4-(4'-fluoro-3'-methylbiphenyl-4-yl)-1-(4-fluorophenyl)-3-[(3S)-3-(4-fluorophenyl)-3-hydroxypropyl]azetidin-2-one]	30
O=C1[C@H](CC[C@H](O)c2ccc(F)cc2)[C@@H](c2ccc(-c3cccc(O[C@H]4O[C@@H](CO)[C@H](O)[C@@H](O)[C@@H]4O)c3)cc2)N1c1ccc(F)cc1 [Example 95, 4'-{(2S,3R)-1-(4-fluorophenyl)-3-[(3S)-3-(4-fluorophenyl)-3-hydroxypropyl]-4-oxoazetidin-2-yl}biphenyl-3-yl β-L-glucopyranoside]	57
COc1ccc(-c2ccc([C@@H]3[C@@H](CC[C@H](O)c4ccc(F)cc4)C(=O)N3c3ccc(F)cc3)cc2)c(OC)c1OC [Example 96, (3R,4S)-1-(4-fluorophenyl)-3-[(3S)-3-(4-fluorophenyl)-3-hydroxypropyl]-4-(2',3',4'-trimethoxybiphenyl-4-yl)azetidin-2-one]	69
COc1ccc(-c2ccc([C@@H]3[C@@H](CC[C@H](O)c4ccc(F)cc4)C(=O)N3c3ccc(F)cc3)cc2)c(OC)c1 [Example 97, (3R,4S)-4-(2',4'-dimethoxybiphenyl-4-yl)-1-(4-fluorophenyl)-3-[(3S)-3-(4-fluorophenyl)-3-hydroxypropyl]azetidin-2-one]	40
Cc1ccccc1-c1ccc([C@@H]2[C@@H](CC[C@H](O)c3ccc(F)cc3)C(=O)N2c2ccc(F)cc2)cc1 [Example 98, (3R,4S)-1-(4-fluorophenyl)-3-[(3S)-3-(4-fluorophenyl).3-hydroxypropyl]-4-(2'-methylbiphenyl-4-yl)azetidin-2-one]	7
O=Cc1ccc(-c2ccc([C@@H]3[C@@H](CC[C@H](O)c4ccc(F)cc4)C(=O)N3c3ccc(F)cc3)cc2)cc1 [Example 99, 4'-{(2S,3R)-1-(4-fluorophenyl)-3-[(3S)-3-(4-fluorophenyl)-3-hydroxypropyl]-4-oxoazetidin-2-yl}-biphenyl-4-carbaldehyde]	38
CCOc1cccc(-c2ccc([C@@H]3[C@@H](CC[C@H](O)c4ccc(F)cc4)C(=O)N3c3ccc(F)cc3)cc2)c1 [Example 100, (3R,4S)-4-(3'-ethoxybiphenyl-4-yl)-1-(4-fluorophenyl)-3-[(3S)-3-(4-fluorophenyl)-3-hydroxypropyl]azetidin-2-one]	54
CCOc1ccc(-c2ccc([C@@H]3[C@@H](CC[C@H](O)c4ccc(F)cc4)C(=O)N3c3ccc(F)cc3)cc2)cc1 [Example 101, (3R,4S)-4-(4'-ethoxybiphenyl-4-yl)-1-(4-fluorophenyl)-3-[(3S)-3-(4-fluorophenyl)-3-hydroxypropyl]azetidin-2-one]	41
COc1cc(-c2ccc([C@@H]3[C@@H](CC[C@H](O)c4ccc(F)cc4)C(=O)N3c3ccc(F)cc3)cc2)ccc1O [Example 102, (3R,4S)-1-(4-fluorophenyl)-3-[(3S)-3-(4-fluorophenyl)-3-hydroxypropyl]-4-(4'-hydroxy-3'-methoxybiphenyl-4-yl)azetidin-2-one]	56
